Experimental data: PubChem BioAssay (NCI)
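Compound exposure: 48 hours, 5 concentrations, 96-well plates. TGI marks complete inhibition of growth.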

Columns and labels:
Assay in all cases: NCI tumour cell line growth inhibition, 48 h
786-0 renal = tested on: 786-0 renal
A498 renal = tested on: A498 renal
A549 NSCLC = tested on: A549 NSCLC
ACHN renal = tested on: ACHN renal
BT-549 breast = tested on: BT-549 breast
CAKI-1 renal = tested on: CAKI-1 renal
CCRF-CEM leukemia = tested on: CCRF-CEM leukemia
COLO 205 colon = tested on: COLO 205 colon
DU-145 prostate = tested on: DU-145 prostate
EKVX NSCLC = tested on: EKVX NSCLC
HCT-116 colon = tested on: HCT-116 colon
HCT-15 colon = tested on: HCT-15 colon
HL-60(TB) leukemia = tested on: HL-60(TB) leukemia
HOP-62 NSCLC = tested on: HOP-62 NSCLC
HOP-92 NSCLC = tested on: HOP-92 NSCLC
HS 578T breast = tested on: HS 578T breast
HT29 colon = tested on: HT29 colon
IGROV1 ovarian = tested on: IGROV1 ovarian
K-562 leukemia = tested on: K-562 leukemia
KM12 colon = tested on: KM12 colon
LOX IMVI melanoma = tested on: LOX IMVI melanoma
M14 melanoma = tested on: M14 melanoma
MALME-3M melanoma = tested on: MALME-3M melanoma
MCF7 breast = tested on: MCF7 breast
MDA-MB-231 breast = tested on: MDA-MB-231 breast
MDA-MB-435 = tested on: MDA-MB-435
MDA-N = tested on: MDA-N
MOLT-4 leukemia = tested on: MOLT-4 leukemia
NCI-H226 lung = tested on: NCI-H226 lung
NCI-H23 lung = tested on: NCI-H23 lung
NCI-H460 lung = tested on: NCI-H460 lung
NCI-H522 lung = tested on: NCI-H522 lung
NCI/ADR-RES ovarian = tested on: NCI/ADR-RES ovarian
OVCAR-3 ovarian = tested on: OVCAR-3 ovarian
OVCAR-4 ovarian = tested on: OVCAR-4 ovarian
OVCAR-5 ovarian = tested on: OVCAR-5 ovarian
OVCAR-8 ovarian = tested on: OVCAR-8 ovarian
PC-3 prostate = tested on: PC-3 prostate
RPMI-8226 leukemia = tested on: RPMI-8226 leukemia
RXF 393 renal = tested on: RXF 393 renal
SF-268 CNS = tested on: SF-268 CNS
SF-295 CNS = tested on: SF-295 CNS
SF-539 CNS = tested on: SF-539 CNS
SK-MEL-2 melanoma = tested on: SK-MEL-2 melanoma
SK-MEL-28 melanoma = tested on: SK-MEL-28 melanoma
SK-MEL-5 melanoma = tested on: SK-MEL-5 melanoma
SK-OV-3 ovarian = tested on: SK-OV-3 ovarian
SN12C renal = tested on: SN12C renal
SNB-19 CNS = tested on: SNB-19 CNS
SNB-75 CNS = tested on: SNB-75 CNS
SR leukemia = tested on: SR leukemia
SW-620 colon = tested on: SW-620 colon
T-47D breast = tested on: T-47D breast
TK-10 renal = tested on: TK-10 renal
U251 CNS = tested on: U251 CNS
UACC-257 melanoma = tested on: UACC-257 melanoma
UACC-62 melanoma = tested on: UACC-62 melanoma
UO-31 renal = tested on: UO-31 renal
HCC-2998 colon = tested on: HCC-2998 colon

Measured: TGI

C/C(=N\NC(=O)c1ccncc1)c1ccccc1Cl
> 100 µM: 786-0 renal | A498 renal | A549 NSCLC | ACHN renal | BT-549 breast | CAKI-1 renal | CCRF-CEM leukemia | COLO 205 colon | DU-145 prostate | EKVX NSCLC | HCT-116 colon | HCT-15 colon | HL-60(TB) leukemia | HOP-62 NSCLC | HOP-92 NSCLC | HS 578T breast | HT29 colon | IGROV1 ovarian | K-562 leukemia | KM12 colon | LOX IMVI melanoma | M14 melanoma | MALME-3M melanoma | MCF7 breast | MDA-MB-231 breast | MDA-MB-435 | MDA-N | MOLT-4 leukemia | NCI-H226 lung | NCI-H23 lung | NCI-H460 lung | NCI-H522 lung | NCI/ADR-RES ovarian | OVCAR-3 ovarian | OVCAR-4 ovarian | OVCAR-5 ovarian | OVCAR-8 ovarian | PC-3 prostate | RPMI-8226 leukemia | RXF 393 renal | SF-268 CNS | SF-295 CNS | SF-539 CNS | SK-MEL-2 melanoma | SK-MEL-28 melanoma | SK-MEL-5 melanoma | SK-OV-3 ovarian | SN12C renal | SNB-19 CNS | SNB-75 CNS | SR leukemia | SW-620 colon | T-47D breast | TK-10 renal | U251 CNS | UACC-257 melanoma | UACC-62 melanoma | UO-31 renal

O=C1c2cc3ccccc3cc2C2(c3ccc(Cl)cc3)NCCN12 (stereo not given)
49.3 µM: KM12 colon
94.9 µM: PC-3 prostate
68.9 µM: SK-OV-3 ovarian | SNB-19 CNS
53.8 µM: OVCAR-3 ovarian
60.4 µM: HCC-2998 colon
86.3 µM: HOP-62 NSCLC
98.2 µM: RPMI-8226 leukemia
61.5 µM: SF-539 CNS
45.5 µM: SK-MEL-2 melanoma
40.4 µM: SK-MEL-5 melanoma
> 100 µM: A498 renal | ACHN renal | BT-549 breast | CAKI-1 renal | CCRF-CEM leukemia | DU-145 prostate | HCT-15 colon | HOP-92 NSCLC | HS 578T breast | HT29 colon | IGROV1 ovarian | K-562 leukemia | MDA-MB-231 breast | MDA-MB-435 | MDA-N | MOLT-4 leukemia | NCI-H226 lung | NCI-H460 lung | NCI/ADR-RES ovarian | OVCAR-4 ovarian | OVCAR-8 ovarian | SF-268 CNS | SK-MEL-28 melanoma | SN12C renal | SNB-75 CNS | SR leukemia | SW-620 colon | T-47D breast | TK-10 renal | U251 CNS | UACC-257 melanoma | UO-31 renal
99.2 µM: 786-0 renal
80 µM: HL-60(TB) leukemia
64.1 µM: NCI-H23 lung
55.4 µM: UACC-62 melanoma
36.3 µM: COLO 205 colon
56.3 µM: LOX IMVI melanoma
45 µM: HCT-116 colon
87.4 µM: A549 NSCLC
42.3 µM: RXF 393 renal
62 µM: SF-295 CNS
81 µM: OVCAR-5 ovarian
92.7 µM: M14 melanoma
95.9 µM: EKVX NSCLC
77.9 µM: MCF7 breast

O=C(CCc1ccc(O)c(O)c1)NCCc1cc(O)cc(OCc2ccccc2)c1
46.9 µM: ACHN renal
75.9 µM: CCRF-CEM leukemia
86 µM: BT-549 breast
58.4 µM: HCT-15 colon
36.7 µM: SNB-19 CNS
38.2 µM: HL-60(TB) leukemia
58.7 µM: MDA-N
51.7 µM: NCI-H460 lung
32.2 µM: SK-MEL-5 melanoma
83.4 µM: SR leukemia
80 µM: NCI-H23 lung
40.7 µM: HCC-2998 colon
71 µM: UO-31 renal
> 100 µM: 786-0 renal | A498 renal | A549 NSCLC | CAKI-1 renal | COLO 205 colon | DU-145 prostate | EKVX NSCLC | HCT-116 colon | HOP-62 NSCLC | HOP-92 NSCLC | HS 578T breast | HT29 colon | IGROV1 ovarian | K-562 leukemia | KM12 colon | LOX IMVI melanoma | M14 melanoma | MCF7 breast | MDA-MB-231 breast | MDA-MB-435 | MOLT-4 leukemia | NCI-H226 lung | NCI-H522 lung | NCI/ADR-RES ovarian | OVCAR-3 ovarian | OVCAR-5 ovarian | PC-3 prostate | RPMI-8226 leukemia | RXF 393 renal | SF-268 CNS | SF-295 CNS | SF-539 CNS | SK-MEL-2 melanoma | SK-MEL-28 melanoma | SK-OV-3 ovarian | SN12C renal | SNB-75 CNS | SW-620 colon | T-47D breast | TK-10 renal | U251 CNS | UACC-257 melanoma | UACC-62 melanoma

O=C(Nc1ccccc1)c1cc(S(=O)(=O)n2cc[nH]c2=O)c(S)cc1Cl
> 100 µM: 786-0 renal | A498 renal | A549 NSCLC | ACHN renal | BT-549 breast | CAKI-1 renal | CCRF-CEM leukemia | COLO 205 colon | DU-145 prostate | EKVX NSCLC | HCC-2998 colon | HCT-116 colon | HCT-15 colon | HL-60(TB) leukemia | HOP-62 NSCLC | HOP-92 NSCLC | HS 578T breast | HT29 colon | IGROV1 ovarian | K-562 leukemia | KM12 colon | LOX IMVI melanoma | M14 melanoma | MCF7 breast | MDA-MB-231 breast | MDA-MB-435 | MDA-N | MOLT-4 leukemia | NCI-H226 lung | NCI-H23 lung | NCI-H460 lung | NCI-H522 lung | NCI/ADR-RES ovarian | OVCAR-3 ovarian | OVCAR-5 ovarian | OVCAR-8 ovarian | PC-3 prostate | RPMI-8226 leukemia | RXF 393 renal | SF-268 CNS | SF-295 CNS | SF-539 CNS | SK-MEL-2 melanoma | SK-MEL-28 melanoma | SK-MEL-5 melanoma | SN12C renal | SNB-19 CNS | SR leukemia | SW-620 colon | T-47D breast | TK-10 renal | U251 CNS | UACC-257 melanoma | UACC-62 melanoma | UO-31 renal
97.5 µM: SNB-75 CNS

CN1CCN(CC(=O)N2c3ccccc3Sc3cc4ccccc4cc32)CC1
26.7 µM: UO-31 renal
33.4 µM: LOX IMVI melanoma
35.3 µM: SNB-19 CNS
27 µM: RXF 393 renal
29.3 µM: DU-145 prostate
33.6 µM: K-562 leukemia
26 µM: CAKI-1 renal
40.1 µM: NCI-H23 lung
31.9 µM: NCI-H522 lung | SK-MEL-2 melanoma
36.2 µM: COLO 205 colon
36.5 µM: OVCAR-8 ovarian
30.3 µM: A549 NSCLC | ACHN renal | SK-OV-3 ovarian
31.8 µM: KM12 colon
16.4 µM: HT29 colon
29.8 µM: OVCAR-5 ovarian
24.6 µM: HOP-92 NSCLC
50.9 µM: SW-620 colon
26.8 µM: 786-0 renal
83.6 µM: CCRF-CEM leukemia
4.55 µM: HL-60(TB) leukemia
22.2 µM: HCT-116 colon
28.4 µM: MALME-3M melanoma | MOLT-4 leukemia
30.2 µM: BT-549 breast
27.7 µM: MDA-MB-231 breast
28.3 µM: HS 578T breast | SF-295 CNS
42.8 µM: NCI-H226 lung
33 µM: HOP-62 NSCLC
29 µM: M14 melanoma
27.9 µM: A498 renal
25.6 µM: SF-268 CNS
27.6 µM: PC-3 prostate
30.9 µM: SF-539 CNS
34.7 µM: HCT-15 colon | SK-MEL-5 melanoma
31.2 µM: SR leukemia
26.1 µM: OVCAR-3 ovarian
22.4 µM: MDA-N
46.1 µM: T-47D breast
28.7 µM: U251 CNS
34.1 µM: RPMI-8226 leukemia
27.8 µM: SNB-75 CNS
29.5 µM: TK-10 renal
28.9 µM: SK-MEL-28 melanoma
23.7 µM: MDA-MB-435
24.5 µM: UACC-257 melanoma
25.5 µM: EKVX NSCLC
25.2 µM: SN12C renal
34.4 µM: NCI/ADR-RES ovarian
29.1 µM: OVCAR-4 ovarian
31.6 µM: MCF7 breast | UACC-62 melanoma
32.8 µM: IGROV1 ovarian | NCI-H460 lung
